Marks after values point to notes of the source that are not given here.
Legend:
Plasmopara viticola = assay: Test D: grape downy mildew, spray after inoculation of grape seedlings; assay type: in vivo; details: 200 ppm
Description: Upon removal, disease ratings were made. […] A dash (-) indicates no test results.

Phytophthora infestans = assay: whole plant or invertebrate; assay type: in vivo; details: 200 ppm
Septoria tritici = assay: Test J: wheat leaf blotch, preventive spray on wheat seedlings; assay type: in vivo
Description: A dash (-) indicates no test results.

fusarium graminearium = assay: Test I: wheat head scab, preventive spray on wheat seedlings; details: 200 ppm
Description: (the causal agent of wheat head scab) and incubated in a saturated atmosphere at 20° C. for 72 h, and then moved to a growth chamber at 22° C. for 5 days, after which disease ratings were made.

[1] = test system: Puccinia recondita f. sp. tritici; assay: Test K: wheat leaf rust, preventive spray on wheat seedlings
Botrytis cinerea = assay: Test E: tomato botrytis, preventive spray on tomato seedlings
Septoria nodorum = assay: Test H: wheat glum blotch, preventive spray on wheat seedlings
Description: (the causal agent of wheat glum blotch) and incubated in a saturated atmosphere at 20° C. for 48 h, and then moved to a growth chamber at 22° C. for 5 days, after which disease ratings were made.

[2] = test system: Erysiphe graminis f. sp. tritici; assay: Test L: wheat powdery mildew, preventive spray on wheat seedlings
Sclerotinia sclerotiorum = assay: Test C: cucumber white mold, preventive spray on cucumber seedlings
Pythium aphanidermatum = assay: Test A: bluegrass pythium blight, preventive spray on bluegrass seedlings; details: 200 ppm
Rhizoctonia oryzae = assay: Test G: turf brown patch, preventive spray on creeping bent grass seedlings
Description: (the causal agent of turf brown patch) and incubated in a saturated atmosphere at 27° C. for 24 h, and then moved to a growth chamber at 27° C. for 5 days, after which disease ratings were made.

[3] = test system: Colletotrichum orbiculare; assay: Test B: cucumber Colletotrichum anthracnose, preventive spray on cucumber seedlings

| Structure (SMILES) | Test D disease control rating (Plasmopara viticola) [%] | Test F disease control rating (Phytophthora infestans) [%] | Test J disease control rating (Septoria tritici; 200 ppm) [%] | Test I disease control rating (fusarium graminearium) [%] | Test K disease control rating ([1]; 200 ppm) [%] | Test E disease control rating (Botrytis cinerea; 200 ppm) [%] | Test H disease control rating (Septoria nodorum; 200 ppm) [%] | Test L disease control rating ([2]; 200 ppm) [%] | Test C disease control rating (Sclerotinia sclerotiorum; 200 ppm) [%] | Test A disease control rating (Pythium aphanidermatum) [%] | Test G disease control rating (Rhizoctonia oryzae; 200 ppm) [%] | Test B disease control rating ([3]; 200 ppm) [%] | Test J disease control rating (Septoria tritici; 40 ppm (*)) | Test K disease control rating ([1]; 40 ppm (*)) | Test E disease control rating (Botrytis cinerea; 40 ppm (*)) | Test H disease control rating (Septoria nodorum; 40 ppm (*)) | Test L disease control rating ([2]; 40 ppm (*)) | Test C disease control rating (Sclerotinia sclerotiorum; 40 ppm (*)) | Test G disease control rating (Rhizoctonia oryzae; 40 ppm (*)) | Test B disease control rating ([3]; 40 ppm (*)) |
| --- | --- | --- | --- | --- | --- | --- | --- | --- | --- | --- | --- | --- | --- | --- | --- | --- | --- | --- | --- | --- |
| O=c1c(-n2cccn2)nc(Cl)c(-c2c(F)cccc2F)n1C1CCCCC1 [compound 47] | 0 | 0 | 100 | 78 | 95 | 100 | 99 | 99 | 0 | 74 | 92 | 54 |  |  |  |  |  |  |  |  |
| CC(C)Cn1c(-c2cccc(F)c2F)c(Cl)nc(-n2cccn2)c1=O [compound 50] | 0 | 0 |  | 0 | 100 | 100 | 100 | 94 | 98 | 0 | 95 | 0 | 100* % |  |  |  |  |  |  |  |
| CC(C)Cn1c(-c2cc(F)ccc2F)c(Cl)nc(-n2cccn2)c1=O [compound 56] | 29 | 0 |  | 60 | 99 | 100 | 100 | 99 | 99 | 0 | 92 | 99 | 100* % |  |  |  |  |  |  |  |
| CC(C)Cn1c(-c2c(F)ccc(F)c2F)c(Cl)nc(-n2cccn2)c1=O [compound 57] | 32 | 0 |  | 0 | 100 | 100 | 100 | 100 | 98 | 0 | 98 | 100 | 99* % |  |  |  |  |  |  |  |
| CCC(C)Cn1c(-c2c(F)cccc2F)c(Cl)nc(-n2ccc(C)n2)c1=O (stereo not drawn) [compound 66] | 0 | 0 |  | 0 |  |  |  |  |  | 0 |  |  | 100* % | 97* % | 100* % | 89* % | 99* % | 0* % | 95* % | 62* % |
| CCC(C)Cn1c(-c2c(F)cccc2F)c(Cl)nc(-n2cnc(C#N)c2C#N)c1=O (stereo not drawn) [compound 67] | 0 | 0 | 24 | 0 |  |  |  |  | 0 | 0 |  |  |  | 0* % | 0* % | 0* % | 0* % |  | 0* % | 0* % |
| CCC(C)Cn1c(-c2c(F)cccc2F)c(Cl)nc(-n2cnc(Cl)c2Cl)c1=O (stereo not drawn) [compound 68] | 0 | 0 |  | 0 |  |  |  |  | 0 | 0 |  |  | 26* % | 0* % | 0* % | 0* % | 0* % |  | 0* % | 0* % |
| CCc1nccn1-c1nc(Cl)c(-c2c(F)cccc2F)n(CC(C)CC)c1=O (stereo not drawn) [compound 70] | 0 | 0 |  | 0 |  |  |  |  | 0 | 0 |  |  | 83* % | 55* % | 0* % | 0* % | 0* % |  | 0* % | 0* % |
| CCCc1nccn1-c1nc(Cl)c(-c2c(F)cccc2F)n(CC(C)CC)c1=O (stereo not drawn) [compound 71] | 0 | 0 |  | 0 |  |  |  |  | 0 | 0 |  |  | 64* % | 68* % | 0* % | 0* % | 0* % |  | 30* % | 0* % |
| CCC(C)Cn1c(-c2c(F)cccc2F)c(Cl)nc(-n2ccnc2C(C)C)c1=O (stereo not drawn) [compound 72] | 0 | 0 |  | 0 |  |  |  |  | 0 | 0 |  |  | 74* % | 61* % | 0* % | 0* % | 53* % |  | 58* % | 0* % |
| CC(C)Cn1c(-c2ccc(C(C)(C)C)cc2)c(Cl)nc(-n2cccn2)c1=O [compound 74] | 0 | 0 |  | 0 |  |  |  |  | 0 | 0 |  |  | 26* % | 80* % | 0* % | 0* % | 75* % |  | 0* % | 0* % |
| CC(C)Cn1c(-c2ccc(C(C)(C)C)cc2)c(Cl)nc(-n2cncn2)c1=O [compound 75] | 0 | 0 |  | 0 |  |  |  |  | 0 | 0 |  |  | 7* % | 0* % | 0* % | 0* % | 0* % |  | 0* % | 0* % |
| CC(C)Cn1c(-c2ccc(C(F)(F)F)cc2)c(Cl)nc(-n2cncn2)c1=O [compound 76] | 0 | 21 |  | 0 |  |  |  |  | 0 | 0 |  |  | 0* % | 0* % | 0* % | 0* % | 0* % |  | 0* % | 0* % |
| CC(C)Cn1c(-c2ccc(OC(F)(F)F)cc2)c(Cl)nc(-n2cncn2)c1=O [compound 77] | 0 | 0 |  | 0 |  |  |  |  | 0 | 0 |  |  | 0* % | 0* % | 0* % | 0* % | 0* % |  | 0* % | 0* % |
| COC(=O)C(C)=NNc1nc(Cl)c(-c2c(F)cccc2F)n(CC(C)C)c1=O [compound 78] | 0 | 0 | 91 | 0 | 0 | 0 | 0 | 0 | 0 | 0 | 0 | 0 |  |  |  |  |  |  |  |  |
| Cc1ccc(-c2c(Cl)nc(-n3cccn3)c(=O)n2CC(C)C)c(C)c1 [compound 80] | 0 | 0 | 100 | 0 | 100 | 100 | 100 | 94 |  | 0 | 47 | 99 |  |  |  |  |  | 0* % |  |  |
